From ChEMBL document CHEMBL4680201, “Design, synthesis, and pharmacological evaluation of 4- or 6-phenyl-pyrimidine derivatives as novel and selective Janus kinase 3 inhibitors” (Eur J Med Chem, 2020)
Active and inactive are the calls of the source. No cut-off for these calls is given here.

Tests used:
[1] = target: T1, Tyrosine-protein kinase JAK3 (Homo sapiens, UniProt P52333)
T1 sequence (P52333 whole entry): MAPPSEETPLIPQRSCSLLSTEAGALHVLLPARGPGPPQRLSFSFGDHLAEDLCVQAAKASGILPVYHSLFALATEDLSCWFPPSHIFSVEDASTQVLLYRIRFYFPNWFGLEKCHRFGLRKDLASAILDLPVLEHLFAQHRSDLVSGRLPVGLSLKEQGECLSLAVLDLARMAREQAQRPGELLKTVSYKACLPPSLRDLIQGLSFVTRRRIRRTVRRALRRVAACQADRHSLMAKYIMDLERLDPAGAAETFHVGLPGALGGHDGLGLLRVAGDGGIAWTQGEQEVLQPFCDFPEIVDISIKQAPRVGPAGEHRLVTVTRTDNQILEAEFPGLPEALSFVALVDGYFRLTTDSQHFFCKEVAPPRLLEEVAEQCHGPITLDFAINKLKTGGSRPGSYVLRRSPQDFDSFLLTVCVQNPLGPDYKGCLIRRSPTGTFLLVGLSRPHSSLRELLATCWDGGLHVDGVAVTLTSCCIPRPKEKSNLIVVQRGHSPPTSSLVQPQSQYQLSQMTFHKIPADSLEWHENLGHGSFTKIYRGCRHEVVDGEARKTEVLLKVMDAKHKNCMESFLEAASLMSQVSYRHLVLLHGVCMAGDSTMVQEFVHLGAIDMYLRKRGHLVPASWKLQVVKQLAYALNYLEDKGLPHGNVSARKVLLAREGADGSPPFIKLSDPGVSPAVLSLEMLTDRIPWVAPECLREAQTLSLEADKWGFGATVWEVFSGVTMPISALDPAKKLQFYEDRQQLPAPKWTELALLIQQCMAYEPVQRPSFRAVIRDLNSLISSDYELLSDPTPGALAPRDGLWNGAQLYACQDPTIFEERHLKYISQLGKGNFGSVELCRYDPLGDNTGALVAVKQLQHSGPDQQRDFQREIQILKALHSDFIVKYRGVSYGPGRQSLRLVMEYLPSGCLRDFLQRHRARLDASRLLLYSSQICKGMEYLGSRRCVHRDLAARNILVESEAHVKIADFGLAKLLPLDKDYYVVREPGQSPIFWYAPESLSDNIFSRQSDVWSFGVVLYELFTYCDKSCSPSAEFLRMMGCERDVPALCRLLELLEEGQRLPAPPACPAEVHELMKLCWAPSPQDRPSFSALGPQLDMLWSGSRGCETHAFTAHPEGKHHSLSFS

[2] = target: Tyrosine-protein kinase JAK2 (Homo sapiens, UniProt O60674); type: ADME
Sequence of Tyrosine-protein kinase JAK2 (O60674 whole entry, the tested form may be a part): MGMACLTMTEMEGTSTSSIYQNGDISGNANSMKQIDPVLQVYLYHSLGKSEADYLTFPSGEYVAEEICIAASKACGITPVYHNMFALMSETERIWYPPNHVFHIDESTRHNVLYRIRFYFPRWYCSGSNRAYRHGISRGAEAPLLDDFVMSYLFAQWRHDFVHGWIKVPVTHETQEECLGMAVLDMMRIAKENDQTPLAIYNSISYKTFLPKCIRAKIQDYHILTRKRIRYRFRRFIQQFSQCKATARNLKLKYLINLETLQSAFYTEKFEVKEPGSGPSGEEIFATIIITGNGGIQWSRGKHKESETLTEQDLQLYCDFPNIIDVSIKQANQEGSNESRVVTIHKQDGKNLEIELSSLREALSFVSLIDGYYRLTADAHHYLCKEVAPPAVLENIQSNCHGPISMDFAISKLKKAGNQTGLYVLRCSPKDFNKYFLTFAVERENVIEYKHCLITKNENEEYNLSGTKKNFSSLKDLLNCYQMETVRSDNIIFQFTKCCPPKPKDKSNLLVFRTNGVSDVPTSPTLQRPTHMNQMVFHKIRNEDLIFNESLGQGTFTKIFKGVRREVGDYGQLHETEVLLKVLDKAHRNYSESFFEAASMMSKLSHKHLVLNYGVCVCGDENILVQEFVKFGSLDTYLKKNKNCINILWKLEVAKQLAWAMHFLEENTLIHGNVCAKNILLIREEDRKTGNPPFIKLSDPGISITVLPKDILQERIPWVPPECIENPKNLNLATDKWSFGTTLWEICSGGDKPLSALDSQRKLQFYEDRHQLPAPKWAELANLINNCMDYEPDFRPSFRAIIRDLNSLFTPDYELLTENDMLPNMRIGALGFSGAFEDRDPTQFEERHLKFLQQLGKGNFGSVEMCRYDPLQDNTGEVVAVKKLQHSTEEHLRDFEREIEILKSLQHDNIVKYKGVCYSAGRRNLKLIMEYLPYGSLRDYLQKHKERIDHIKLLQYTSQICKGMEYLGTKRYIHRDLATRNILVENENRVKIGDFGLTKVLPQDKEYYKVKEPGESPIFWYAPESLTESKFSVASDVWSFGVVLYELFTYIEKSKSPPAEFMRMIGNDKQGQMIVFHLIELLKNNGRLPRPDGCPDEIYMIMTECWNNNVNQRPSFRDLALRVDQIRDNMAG

[3] = target: Tyrosine-protein kinase JAK1 (Homo sapiens, UniProt P23458); assay: Inhibition of recombinant human GST-tagged JAK1 cytoplasmic domain (866 to 1154 residues) expressed in baculovirus expression system using TK-substrate-biotin preincubated for 5 mins followed by substrate addition and measured after 30 mins by HTRF assay
Sequence of Tyrosine-protein kinase JAK1 (P23458 whole entry, the tested form may be a part): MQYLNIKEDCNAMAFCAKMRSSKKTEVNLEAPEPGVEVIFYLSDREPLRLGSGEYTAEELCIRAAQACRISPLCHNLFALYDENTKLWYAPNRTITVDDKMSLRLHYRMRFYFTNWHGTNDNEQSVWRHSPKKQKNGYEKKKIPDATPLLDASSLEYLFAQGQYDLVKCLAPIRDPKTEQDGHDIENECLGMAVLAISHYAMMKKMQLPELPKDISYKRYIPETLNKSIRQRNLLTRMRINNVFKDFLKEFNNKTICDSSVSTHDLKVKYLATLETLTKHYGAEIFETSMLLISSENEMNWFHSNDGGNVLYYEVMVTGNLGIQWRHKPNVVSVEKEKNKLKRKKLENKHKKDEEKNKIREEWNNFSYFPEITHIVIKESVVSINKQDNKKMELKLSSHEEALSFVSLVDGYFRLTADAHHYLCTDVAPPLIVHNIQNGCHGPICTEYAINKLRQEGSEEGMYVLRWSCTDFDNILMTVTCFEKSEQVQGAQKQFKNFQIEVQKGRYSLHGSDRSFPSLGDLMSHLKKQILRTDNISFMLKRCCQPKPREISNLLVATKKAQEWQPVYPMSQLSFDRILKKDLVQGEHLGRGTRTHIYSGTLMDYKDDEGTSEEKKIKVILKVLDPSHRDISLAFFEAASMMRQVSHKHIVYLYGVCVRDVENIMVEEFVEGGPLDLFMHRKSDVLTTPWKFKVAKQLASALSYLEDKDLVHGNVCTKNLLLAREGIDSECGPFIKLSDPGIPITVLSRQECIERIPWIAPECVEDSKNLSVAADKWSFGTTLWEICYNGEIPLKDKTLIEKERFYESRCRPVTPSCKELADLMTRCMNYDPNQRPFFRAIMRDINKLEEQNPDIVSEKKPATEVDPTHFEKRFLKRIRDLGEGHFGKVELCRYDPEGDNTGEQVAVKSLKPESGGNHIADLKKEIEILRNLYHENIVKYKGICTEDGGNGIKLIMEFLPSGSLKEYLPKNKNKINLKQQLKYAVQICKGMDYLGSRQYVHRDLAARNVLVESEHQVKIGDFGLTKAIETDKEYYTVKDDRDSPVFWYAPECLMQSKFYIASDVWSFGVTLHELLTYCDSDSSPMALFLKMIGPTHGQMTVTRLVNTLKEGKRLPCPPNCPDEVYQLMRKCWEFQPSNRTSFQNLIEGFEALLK

[4] = target: Non-receptor tyrosine-protein kinase TYK2 (Homo sapiens, UniProt P29597); assay: Inhibition of recombinant human N-terminal GST-tagged TYK2 cytoplasmic domain (833 to 1187 residues) expressed in baculovirus expression system using TK-substrate-biotin preincubated for 5 mins followed by substrate addition and measured after 30 mins by HTRF assay
Sequence of Non-receptor tyrosine-protein kinase TYK2 (P29597 whole entry, the tested form may be a part): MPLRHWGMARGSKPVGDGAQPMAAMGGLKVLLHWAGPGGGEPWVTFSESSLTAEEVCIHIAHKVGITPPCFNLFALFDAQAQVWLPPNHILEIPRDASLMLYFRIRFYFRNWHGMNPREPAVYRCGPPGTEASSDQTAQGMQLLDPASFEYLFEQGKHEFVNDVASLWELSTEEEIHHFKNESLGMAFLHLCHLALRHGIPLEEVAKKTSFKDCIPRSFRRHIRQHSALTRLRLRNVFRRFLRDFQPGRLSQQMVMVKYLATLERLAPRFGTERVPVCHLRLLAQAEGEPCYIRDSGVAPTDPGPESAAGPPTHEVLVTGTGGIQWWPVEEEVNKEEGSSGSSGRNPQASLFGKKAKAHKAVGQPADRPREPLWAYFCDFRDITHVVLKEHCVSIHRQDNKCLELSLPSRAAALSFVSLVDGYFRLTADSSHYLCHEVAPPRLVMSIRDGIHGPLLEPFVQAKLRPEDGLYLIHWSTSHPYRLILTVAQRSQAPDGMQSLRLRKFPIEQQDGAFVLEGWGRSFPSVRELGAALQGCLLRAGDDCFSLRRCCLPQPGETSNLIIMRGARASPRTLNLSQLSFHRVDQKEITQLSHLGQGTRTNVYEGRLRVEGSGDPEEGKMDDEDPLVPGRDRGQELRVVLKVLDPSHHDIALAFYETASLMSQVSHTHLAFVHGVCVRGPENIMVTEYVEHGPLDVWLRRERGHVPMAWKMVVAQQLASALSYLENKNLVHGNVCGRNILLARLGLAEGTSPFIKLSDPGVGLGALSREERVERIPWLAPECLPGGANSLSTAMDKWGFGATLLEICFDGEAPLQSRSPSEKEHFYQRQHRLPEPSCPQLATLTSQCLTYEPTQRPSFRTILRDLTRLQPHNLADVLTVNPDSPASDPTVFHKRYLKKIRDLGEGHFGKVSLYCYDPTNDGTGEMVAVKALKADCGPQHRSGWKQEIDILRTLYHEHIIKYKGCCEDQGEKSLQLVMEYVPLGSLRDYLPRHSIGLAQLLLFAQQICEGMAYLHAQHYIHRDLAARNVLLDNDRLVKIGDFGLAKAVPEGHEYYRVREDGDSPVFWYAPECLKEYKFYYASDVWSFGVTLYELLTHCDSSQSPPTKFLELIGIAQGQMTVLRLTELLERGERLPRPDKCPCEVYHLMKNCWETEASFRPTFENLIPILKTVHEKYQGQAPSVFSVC

[5] = Cytotoxicity against resting mouse T cells assessed as reduction in cell viability at 10 uM measured after 72 hrs by MTS assay; type: cell-based
[6] = Cytotoxicity against IL-4-treated mouse T cells assessed as reduction in cell viability at 10 uM measured after 72 hrs by MTS assay; type: cell-based
RAW264.7 = assay: Cytotoxicity against mouse RAW264.7 cells assessed as reduction in cell viability at 10 uM measured after 72 hrs by MTS assay; type: cell-based; settings: raw264.7, 72 h
[7] = target: T2, Tyrosine-protein kinase JAK3 (Mus musculus) (UniProt Q62137); assay: Inhibition of JAK3 in anti-CD3/-CD28 coated mouse T cells assessed as reduction in IL2-induced STAT5 phosphorylation at 10 uM preincubated for 1 hr followed by IL2 stimulation and measured after 30 mins by Western blot analysis; settings: T cell
T2 sequence (whole entry): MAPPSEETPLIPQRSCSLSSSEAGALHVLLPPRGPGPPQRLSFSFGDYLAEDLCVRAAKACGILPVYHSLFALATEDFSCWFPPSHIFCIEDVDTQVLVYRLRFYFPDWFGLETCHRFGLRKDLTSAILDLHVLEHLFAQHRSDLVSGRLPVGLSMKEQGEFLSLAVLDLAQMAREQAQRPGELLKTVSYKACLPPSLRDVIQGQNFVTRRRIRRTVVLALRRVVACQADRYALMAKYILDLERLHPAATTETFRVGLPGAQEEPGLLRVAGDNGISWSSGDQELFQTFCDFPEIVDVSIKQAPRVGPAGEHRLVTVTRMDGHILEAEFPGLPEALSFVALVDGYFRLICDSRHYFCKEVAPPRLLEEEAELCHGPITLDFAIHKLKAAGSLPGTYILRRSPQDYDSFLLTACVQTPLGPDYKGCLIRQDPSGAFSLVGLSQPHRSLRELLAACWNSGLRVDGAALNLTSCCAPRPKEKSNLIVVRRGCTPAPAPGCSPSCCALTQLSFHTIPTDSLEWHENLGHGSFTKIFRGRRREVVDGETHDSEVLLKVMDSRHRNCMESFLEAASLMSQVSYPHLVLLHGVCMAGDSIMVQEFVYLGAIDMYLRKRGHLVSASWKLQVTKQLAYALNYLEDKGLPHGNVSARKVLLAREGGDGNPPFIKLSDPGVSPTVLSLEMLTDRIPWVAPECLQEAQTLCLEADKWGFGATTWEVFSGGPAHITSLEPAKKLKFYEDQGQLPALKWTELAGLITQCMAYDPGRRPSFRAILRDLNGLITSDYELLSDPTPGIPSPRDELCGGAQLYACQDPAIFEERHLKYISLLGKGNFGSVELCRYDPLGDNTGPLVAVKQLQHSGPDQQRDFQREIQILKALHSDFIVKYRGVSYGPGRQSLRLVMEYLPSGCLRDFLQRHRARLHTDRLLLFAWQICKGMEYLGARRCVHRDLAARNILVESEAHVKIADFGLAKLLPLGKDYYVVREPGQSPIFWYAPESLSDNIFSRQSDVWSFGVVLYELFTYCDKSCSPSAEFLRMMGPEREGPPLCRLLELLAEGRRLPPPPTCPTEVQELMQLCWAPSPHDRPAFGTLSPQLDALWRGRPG

[8] = target: T2, Tyrosine-protein kinase JAK3 (Mus musculus); assay: Inhibition of JAK3 in anti-CD3/-CD28 coated mouse T cells assessed as reduction in IL15-induced STAT5 phosphorylation at 10 uM preincubated for 1 hr followed by […] and measured after 30 mins by Western blot analysis; settings: T cell

SMILES | IC50 [1] | IC50 [2] | IC50 [3] | IC50 [4] | inhibition [7] | inhibition [8] | Activity [5] | Activity [6] | Activity (RAW264.7)
N#CCC(=O)NCC(=O)Nc1cccc(-c2cc(Nc3ccc(N4CCOCC4)cc3)ncn2)c1 | 0.253 µM | 0.309 µM | 1.43 µM | – | – | – | – | – | –
C=CC(=O)Nc1cccc(-c2cc(Nc3cnn(C)c3)ncn2)c1 | 0.303 µM | 2.24 µM | 0.657 µM | – | – | – | – | – | –
N#CCC(=O)Nc1ccc(-c2ccnc(Nc3ccc(N4CCOCC4)cc3)n2)cc1 | – | – | 0.433 µM | > 3 µM | – | – | – | – | –
Cn1cc(Nc2cc(-c3cccc(NC(=O)CC#N)c3)ncn2)cn1 | 0.145 µM | – | 0.854 µM | – | – | – | – | – | –
C/C=C/C(=O)Nc1cccc(-c2cc(Nc3ccc(N4CCOCC4)cc3)ncn2)c1 | – | 2.13 µM | 2.88 µM | > 3 µM | – | – | – | – | –
C=CC(=O)Nc1cccc(-c2cc(Nc3cnn(CC(=O)NC)c3)ncn2)c1 | 0.138 µM | – | 0.84 µM | – | – | – | – | – | –
N#CCC(=O)Nc1ccc(-c2cc(Nc3ccc(N4CCOCC4)cc3)ncn2)cc1 | 0.078 µM | – | 0.528 µM | – | – | – | – | – | –
C=CC(=O)Nc1cccc(-c2cc(Nc3cnn(CCO)c3)ncn2)c1 | 0.599 µM | 2.59 µM | – | – | – | – | – | – | –
N#CCC(=O)Nc1cccc(-c2cc(Nc3ccc(N4CCOCC4)cc3)ncn2)c1 | 0.17 µM | 0.734 µM | 1.86 µM | – | – | – | – | – | –
C=CC(=O)Nc1cccc(-c2ccnc(Nc3ccc(N4CCOCC4)cc3)n2)c1 | 0.03 µM | 1.8 µM | 2.12 µM | 2.44 µM | – | – | – | – | –
C=CC(=O)NCC(=O)Nc1cccc(-c2cc(Nc3ccc(N4CCOCC4)cc3)ncn2)c1 | 0.103 µM | > 3 µM | 0.354 µM | – | – | – | – | – | –
C=CC(=O)Nc1cccc(-c2cc(Nc3ccc(N4CCOCC4)cc3)ncn2)c1 | 0.183 µM | 2.04 µM | 1.11 µM | – | – | – | – | – | –
C=CC(=O)Nc1cccc(-c2cc(Nc3cnn(CCN(C)C)c3)ncn2)c1 | 0.309 µM | > 3 µM | 0.731 µM | – | – | – | – | – | –
N#CCC(=O)Nc1cccc(-c2cc(Nc3cnn(CCO)c3)ncn2)c1 | 0.243 µM | 1.14 µM | 1.54 µM | – | – | – | – | – | –
CNC(=O)Cn1cc(Nc2cc(-c3cccc(NC(=O)CNC(=O)CC#N)c3)ncn2)cn1 | 0.127 µM | 2.73 µM | > 3 µM | – | – | – | – | – | –
C/C=C/C(=O)Nc1ccc(-c2cc(Nc3ccc(N4CCOCC4)cc3)ncn2)cc1 | 0.099 µM | 2.15 µM | 0.321 µM | – | – | – | – | – | –
N#CCC(=O)Nc1cccc(-c2ccnc(Nc3ccc(N4CCOCC4)cc3)n2)c1 | 0.152 µM | 0.216 µM | 2.23 µM | > 3 µM | – | – | – | – | –
C/C=C/C(=O)NCC(=O)Nc1cccc(-c2cc(Nc3ccc(N4CCOCC4)cc3)ncn2)c1 | 0.375 µM | – | 0.586 µM | – | – | – | – | – | –
C=CC(=O)Nc1ccc(-c2cc(Nc3ccc(N4CCOCC4)cc3)ncn2)cc1 | 0.112 µM | 1.57 µM | 0.961 µM | – | – | – | – | – | –
Cn1cc(Nc2cc(-c3cccc(NC(=O)CNC(=O)CC#N)c3)ncn2)cn1 | 0.095 µM | 0.069 µM | 0.089 µM | – | – | – | – | – | –
COCCn1cc(Nc2cc(-c3cccc(NC(=O)CC#N)c3)ncn2)cn1 | 0.065 µM | 0.587 µM | 0.322 µM | 2.26 µM | – | – | – | – | –
C=CC(=O)NCC(=O)Nc1cccc(-c2cc(Nc3cnn(CCOC)c3)ncn2)c1 | 0.066 µM | 1.54 µM | 0.056 µM | – | – | – | – | – | –

Second part, led by results:

IC50 [1] | IC50 [2] | IC50 [3] | IC50 [4] | inhibition [7] | inhibition [8] | SMILES | Activity [5] | Activity [6] | Activity (RAW264.7)
0.0091 µM | 1.08 µM | 1.56 µM | > 3 µM | Active | Active | C=CC(=O)Nc1ccc(-c2ccnc(Nc3cnn(CCOC)c3)n2)cc1 | Non-Toxic | Non-Toxic | Non-Toxic
0.014 µM | 1.98 µM | 1.44 µM | > 3 µM | – | – | C/C=C/C(=O)Nc1ccc(-c2ccnc(Nc3cnn(CCOC)c3)n2)cc1 | – | – | –
0.108 µM | 0.886 µM | 0.045 µM | – | – | – | C/C=C/C(=O)NCC(=O)Nc1cccc(-c2cc(Nc3cnn(CCOC)c3)ncn2)c1 | – | – | –
0.567 µM | 2.76 µM | 1.52 µM | – | – | – | C/C=C/C(=O)Nc1cccc(-c2cc(Nc3cnn(C)c3)ncn2)c1 | – | – | –
0.029 µM | 2.58 µM | 1.29 µM | > 3 µM | – | – | C/C=C/C(=O)Nc1cccc(-c2cc(Nc3cnn(CCOC)c3)ncn2)c1 | – | – | –
0.055 µM | 1.29 µM | 1.1 µM | 2.87 µM | – | – | C=CC(=O)Nc1cccc(-c2ccnc(Nc3cnn(CCOC)c3)n2)c1 | – | – | –
0.086 µM | 1.46 µM | 2.68 µM | 1.87 µM | – | – | COCCn1cc(Nc2cc(-c3ccc(NC(=O)CC#N)cc3)ncn2)cn1 | – | – | –
0.067 µM | > 3 µM | 1.66 µM | > 3 µM | – | – | C=CC(=O)Nc1ccc(-c2cc(Nc3cnn(CCOC)c3)ncn2)cc1 | – | – | –
0.024 µM | – | 0.183 µM | 2.5 µM | – | – | COCCn1cc(Nc2nccc(-c3ccc(NC(=O)CC#N)cc3)n2)cn1 | – | – | –
0.033 µM | 2.79 µM | – | 2.65 µM | – | – | C/C=C/C(=O)Nc1cccc(-c2ccnc(Nc3ccc(N4CCOCC4)cc3)n2)c1 | – | – | –
0.067 µM | 1.89 µM | 0.899 µM | – | – | – | C/C=C/C(=O)Nc1cccc(-c2cc(Nc3cnn(CCN(C)C)c3)ncn2)c1 | – | – | –
0.221 µM | 2.81 µM | 2.44 µM | – | – | – | C/C=C/C(=O)Nc1cccc(-c2cc(Nc3cnn(CCO)c3)ncn2)c1 | – | – | –
0.101 µM | 2.85 µM | 0.568 µM | – | – | – | C=CC(=O)Nc1cccc(-c2cc(Nc3cnn(CCOC)c3)ncn2)c1 | – | – | –
0.092 µM | 1.11 µM | – | – | – | – | C/C=C/C(=O)Nc1cccc(-c2cc(Nc3cnn(CC(=O)NC)c3)ncn2)c1 | – | – | –
0.076 µM | – | 2.76 µM | – | – | – | C/C=C/C(=O)Nc1ccc(-c2cc(Nc3cnn(CCOC)c3)ncn2)cc1 | – | – | –
